We go through 19 compounds from US10040788B2, “1,3,4-thiadiazole compounds and their use in treating cancer” (AstraZeneca AB, priority 2014, dated 2018).

Test [1] has as its target cellular GLS activity (Homo sapiens (Human), UniProt O94925). The test is described as follows: GLS Cell Potency Assay (PC3 coupled assay measuring cellular glutamate depletion). The test is classed as cell-based. As to conditions: PC3 cells, 6 h incubation, cellular glutamate depletion; geometric mean where repeated; read-out: Assay b) GLS Cell Potency Assay IC50. An excerpt: (§1) The following assays were used to measure the effects of the compounds of the present invention: a) GLS Enzyme Potency Assay; b) GLS Cell Potency Assay; c) GLS Cell Proliferation Assay; and d) Mouse Xenograft Model. During the description of the assays, generally: • i. The following abbreviations have been used: CO2=Carbon dioxide; DMEM=Dulbecco's Modified Eagle Medium; DMSO=Dimethyl sulphoxide; EDTA=Ethylenediaminetetraacetic acid; EGTA=Ethylene glycol tetraacetic acid; FCS=Foetal calf serum; h=Hour(s); NBS=Non-binding surface; SDS=Sodium dodecyl sulphate; r.t.=room temperature; TRIS=Tris(Hydroxymethyl)aminomethane. • ii. […]
Compounds were assessed for their potential to inhibit cellular GLS activity by use of a PC3 coupled assay measuring cellular glutamate depletion. […] DMSO concentration was maintained at 0.3% by back filling with DMSO solution. PC3 cells were grown in phenol free DMEM, 10% dialyzed FCS, 2 mM glutamine and following dispersal by trypsinisation were plated at 5.6×10^3 cells per well in 40 μl of growth medium directly into the 384 well assay plates containing dispensed compound. After incubation for 6 h at 37° C., 5% CO2 growth media was aspirated and cells lysed in 15 μl of buffer containing 10 mM TRIS pH7.4, 100 mM NaCl, 1 mM EDTA, 1 mM EGTA, 1 mM NaF, 20 mM Na4P2O7, 2 mM Na3VO4, 1% Triton X-100, 10% glycerol, 0.1% SDS and 0.5% deoxycholate.

In test [2] the target is GLS1 (Homo sapiens (Human), UniProt O94925). The test is described as follows: GLS Enzyme Potency Assay (Glutamate Oxidase/AmplexRed coupled assay). The test is classed as biochemical. As to conditions: 6His tagged GLS protein (amino acids 63-669); geometric mean where repeated. An excerpt: The following assays were used to measure the effects of the compounds of the present invention: a) GLS Enzyme Potency Assay; b) GLS Cell Potency Assay; c) GLS Cell Proliferation Assay; and d) Mouse Xenograft Model. During the description of the assays, generally: • i. The following abbreviations have been used: CO2=Carbon dioxide; DMEM=Dulbecco's Modified Eagle Medium; DMSO=Dimethyl sulphoxide; EDTA=Ethylenediaminetetraacetic acid; EGTA=Ethylene glycol tetraacetic acid; FCS=Foetal calf serum; h=Hour(s); NBS=Non-binding surface; SDS=Sodium dodecyl sulphate; r.t.=room temperature; TRIS=Tris(Hydroxymethyl)aminomethane. • ii. IC50 values were calculated using a smart fitting model in Genedata. […] Assay a): GLS Enzyme Potency Assay
Sequence of GLS1 (O94925 63-669): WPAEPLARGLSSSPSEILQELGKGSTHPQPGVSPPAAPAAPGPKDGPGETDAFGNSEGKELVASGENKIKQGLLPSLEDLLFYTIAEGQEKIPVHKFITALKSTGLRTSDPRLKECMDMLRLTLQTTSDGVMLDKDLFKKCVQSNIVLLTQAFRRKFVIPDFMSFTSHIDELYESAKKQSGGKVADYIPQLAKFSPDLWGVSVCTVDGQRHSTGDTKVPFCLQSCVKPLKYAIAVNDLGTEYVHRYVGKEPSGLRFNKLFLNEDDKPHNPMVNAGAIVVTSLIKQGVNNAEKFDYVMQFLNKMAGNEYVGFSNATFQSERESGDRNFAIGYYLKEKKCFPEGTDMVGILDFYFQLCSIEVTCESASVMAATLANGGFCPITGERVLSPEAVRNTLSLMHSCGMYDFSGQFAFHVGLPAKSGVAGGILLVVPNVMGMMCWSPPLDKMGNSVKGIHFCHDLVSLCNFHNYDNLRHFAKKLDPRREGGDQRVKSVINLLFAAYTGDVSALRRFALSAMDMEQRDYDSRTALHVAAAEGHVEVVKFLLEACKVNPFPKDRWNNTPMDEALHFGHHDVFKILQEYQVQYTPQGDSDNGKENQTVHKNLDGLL
A Glutamate Oxidase/AmplexRed coupled assay was used to measure the ability of compounds to bind to and inhibit the activity of GLS1 in vitro. […] GLS1 was diluted to 2× working concentration and incubated at r.t. to allow the tetrameric/dimeric forms to reach steady state. Assay measurements were performed in buffer comprising 50 mM TRIS pH 7.8, 100 mM NaPO4, pH 7.8, 0.001% v/v Tween20. […] DMSO concentration was maintained at 2% by back filling with DMSO solution. […] 3 μL of 100 mM glutamine diluted in assay buffer was then added and the reaction incubated at r.t. for 60 minutes. […] An artefact version of the assay where the 6His tagged GLS protein and glutamine were replaced with assay buffer was also used to rule out non specific effects on the assay components.

The subject of test [3] is NCI-H1703 cells. The test is described as follows: GLS Cell Proliferation Assay (NCI-H1703). The test is classed as cell-based, human. The note with it: Homo sapiens, 120 h; NCI-H1703 cells, 5 days incubation; geometric mean where repeated; read-out: Assay c) GLS Cell Proliferation Assay.
Source text: as §1
The ability of compounds to inhibit cell growth was measured using a 384 well plate NCI-H1703 cell proliferation assay. NCI-H1703 cells were grown in phenol red free RPMI1640, 10% FCS and 2 mM glutamine and seeded at a density of 750 cells per well in 40 μl of growth medium into clear-bottom 384 well assay plates (Corning product code 3712) and incubated for 24 h at 37° C., 5% CO2. […] DMSO concentration was maintained at 0.3% by back filling with DMSO solution. Plates were incubated for 5 days at 37° C., 5% CO2, Sytox Green and Saponin added to final concentration of 2 μM and 0.25% respectively and incubated for 6 h prior to analysis. Plates were read on an Acumen eX3 (TTP Labtech) using 488 nm excitation and FITC filter set (500-530 nm) for emission. IC50 values were calculated by curve fitting to max inhibition of day zero growth using GeneData software analysis.

Each structure is given as a SMILES string.

Sequence of cellular GLS activity (O94925 55-669): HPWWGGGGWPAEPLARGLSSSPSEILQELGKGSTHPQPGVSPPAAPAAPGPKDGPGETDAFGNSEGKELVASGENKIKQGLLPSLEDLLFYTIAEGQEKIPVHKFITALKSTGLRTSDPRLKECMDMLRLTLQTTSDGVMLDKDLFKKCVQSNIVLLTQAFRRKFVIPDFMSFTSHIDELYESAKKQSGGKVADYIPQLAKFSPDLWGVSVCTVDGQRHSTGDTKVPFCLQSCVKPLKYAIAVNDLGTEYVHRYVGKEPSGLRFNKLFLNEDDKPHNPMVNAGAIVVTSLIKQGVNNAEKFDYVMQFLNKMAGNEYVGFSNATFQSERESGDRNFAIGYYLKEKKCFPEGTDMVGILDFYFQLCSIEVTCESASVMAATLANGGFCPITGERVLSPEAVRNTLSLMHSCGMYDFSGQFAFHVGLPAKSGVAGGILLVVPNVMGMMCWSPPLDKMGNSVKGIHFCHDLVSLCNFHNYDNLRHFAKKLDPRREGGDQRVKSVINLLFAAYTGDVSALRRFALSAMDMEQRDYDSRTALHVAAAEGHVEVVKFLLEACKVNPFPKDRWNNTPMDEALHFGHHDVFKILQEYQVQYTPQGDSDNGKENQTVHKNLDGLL

As to `COc1ccc([C@H](OC)C(=O)Nc2nnc(N[C@@H]3CCN(c4cccnn4)C3)s2)cc1` [Example 11, (2S)-2-Methoxy-2-(4-methoxyphenyl)-N-[5-[[(3R)-1-pyridazin-3-ylpyrrolidin-3-yl]amino]-1,3,4-thiadiazol-2-yl]acetamide], the IC50 turned out to be 0.401 nM in test [1], 31 nM in test [2] and 10.8 nM in test [3].

For the compound `CO[C@H](C(=O)Nc1nnc(N[C@@H]2CCN(c3cncnn3)C2)s1)c1ccccc1` [Example 3, (2S)-2-Methoxy-2-phenyl-N-[5-[[(3R)-1-(1,2,4-triazin-6-yl)pyrrolidin-3-yl]amino]-1,3,4-thiadiazol-2-yl]acetamide], the IC50 amounted to 0.39 nM in test [1], 29 nM in test [2] and 3.24 nM in test [3].

As to `CCO[C@H](C(=O)Nc1nnc(N[C@@H]2CCN(c3nccnn3)C2)s1)c1cccc(OC)c1` [27(a), (2S)-2-ethoxy-2-(3-methoxyphenyl)-N-[5-[[(3R)-1-(1,2,4-triazin-3-yl)pyrrolidin-3-yl]amino]-1,3,4-thiadiazol-2-yl]acetamide], the IC50 in test [1] worked out at 2.23 nM; in test [2], 50.8 nM; in test [3], 11.7 nM.

As for `COc1cccc([C@@H](OC)C(=O)Nc2nnc(N[C@@H]3CCN(c4cccnn4)C3)s2)c1` [Example 5(b), (2R)-2-Methoxy-2-(3-methoxyphenyl)-N-[5-[[(3R)-1-pyridazin-3-ylpyrrolidin-3-yl]amino]-1,3,4-thiadiazol-2-yl]acetamide], the figures for the IC50 in test [1], in test [2] and in test [3] were 5.3 nM, 87.9 nM and 53.5 nM, respectively.

Take `COc1cccc([C@H](OC)C(=O)Nc2nnc(N[C@@H]3CCN(c4cncnn4)C3)s2)c1` [21(a), (2S)-2-methoxy-2-(3-methoxyphenyl)-N-[5-[[(3R)-1-(1,2,4-triazin-6-yl)pyrrolidin-3-yl]amino]-1,3,4-thiadiazol-2-yl]acetamide]: the IC50 in test [1] is 15.7 nM; in test [3], 168 nM.

For the compound `CO[C@@H](C(=O)Nc1nnc(N[C@@H]2CCN(c3nccnn3)C2)s1)c1cccc(OC(F)F)c1` [Example 6(b), (2R)-2-[3-(Difluoromethoxy)phenyl]-2-methoxy-N-[5-[[(3R)-1-(1,2,4-triazin-3-yl)pyrrolidin-3-yl]amino]-1,3,4-thiadiazol-2-yl]acetamide], the IC50 in test [1] came out at 37 nM; in test [2] it was 519 nM; in test [3], 81.7 nM.

As to `COc1ccc([C@H](OC)C(=O)Nc2nnc(N[C@@H]3CCN(c4nccnn4)C3)s2)cc1` [Example 24, (2S)-2-methoxy-2-(4-methoxyphenyl)-N-[5-[[(3R)-1-(1,2,4-triazin-3-yl)pyrrolidin-3-yl]amino]-1,3,4-thiadiazol-2-yl]acetamide], the IC50 came to 4.58 nM in test [1], 74.7 nM in test [2] and 118 nM in test [3].

Take `CCO[C@@H](C(=O)Nc1nnc(N[C@@H]2CCN(c3cccnn3)C2)s1)c1ccc(F)cc1` [Example 13(b), (2R)-2-Ethoxy-2-(4-fluorophenyl)-N-[5-[[(3R)-1-pyridazin-3-ylpyrrolidin-3-yl]amino]-1,3,4-thiadiazol-2-yl]acetamide]: the IC50 in test [1] was found to be 14 nM; in test [2], 170 nM; in test [3], 560 nM.

With `COc1ccc([C@@H](OC)C(=O)Nc2nnc(N[C@@H]3CCN(c4cccnn4)C3)s2)cc1OC` [25(b), (2R)-2-(3,4-dimethoxyphenyl)-2-methoxy-N-[5-[[(3R)-1-pyridazin-3-ylpyrrolidin-3-yl]amino]-1,3,4-thiadiazol-2-yl]acetamide], the IC50 in test [1] stood at 56.1 nM; in test [2], 135 nM; in test [3], 630 nM.

Turning to `COc1cc([C@H](OC)C(=O)Nc2nnc(N[C@@H]3CCN(c4nccnn4)C3)s2)ccc1F` [32(a), (2S)-2-(4-fluoro-3-methoxy-phenyl)-2-methoxy-N-[5-[[(3R)-1-(1,2,4-triazin-3-yl)pyrrolidin-3-yl]amino]-1,3,4-thiadiazol-2-yl]acetamide], the IC50 in test [1] came to 300 nM; in test [2] it was 2460 nM; in test [3] it was 2960 nM.

For the compound `CCO[C@@H](C(=O)Nc1nnc(N[C@@H]2CCN(c3cccnn3)C2)s1)c1ccccc1` [Example 10(b), (2R)-2-Ethoxy-2-phenyl-N-[5-[[(3R)-1-pyridazin-3-ylpyrrolidin-3-yl]amino]-1,3,4-thiadiazol-2-yl]acetamide], the IC50 was determined as 13 nM in test [1], 110 nM in test [2] and 234 nM in test [3].

In the case of `CO[C@@H](C(=O)Nc1nnc(N[C@@H]2CCN(c3nccnn3)C2)s1)c1cccc(OC(F)F)c1` [19(b), (2R)-2-[3-(difluoromethoxy)phenyl]-2-methoxy-N-[5-[[(3R)-1-(1,2,4-triazin-3-yl)pyrrolidin-3-yl]amino]-1,3,4-thiadiazol-2-yl]acetamide], the IC50 in test [1] amounted to 37.4 nM; in test [2] it was 519 nM.

On to `CCO[C@H](C(=O)Nc1nnc(N[C@@H]2CCN(c3cccnn3)C2)s1)c1ccccc1` [Example 10(a), (2S)-2-Ethoxy-2-phenyl-N-[5-[[(3R)-1-pyridazin-3-ylpyrrolidin-3-yl]amino]-1,3,4-thiadiazol-2-yl]acetamide], for which the IC50 in test [1] was 0.91 nM; in test [3], 10.9 nM.

For `CO[C@H](C(=O)Nc1nnc(N[C@@H]2CCN(c3cncnn3)C2)s1)c1cccc(OC(F)F)c1` [23(a), (2S)-2-[3-(difluoromethoxy)phenyl]-2-methoxy-N-[5-[[(3R)-1-(1,2,4-triazin-6-yl)pyrrolidin-3-yl]amino]-1,3,4-thiadiazol-2-yl]acetamide], the IC50 in test [3] was 4.63 nM.

Take `CO[C@@H](C(=O)Nc1nnc(N[C@@H]2CCN(c3cccnn3)C2)s1)c1ccc(F)cc1` [Example 12(b), (2R)-2-(4-Fluorophenyl)-2-methoxy-N-[5-[[(3R)-1-pyridazin-3-ylpyrrolidin-3-yl]amino]-1,3,4-thiadiazol-2-yl]acetamide]: the IC50 in test [3] stood at 429 nM.

`[2H]C([2H])([2H])O[C@@]([2H])(C(=O)Nc1nnc(N[C@@H]2CCN(c3cccnn3)C2)s1)c1ccccc1` [20(b), (2R)-2-deuterio-2-phenyl-N-[5-[[(3R)-1-pyridazin-3-ylpyrrolidin-3-yl]amino]-1,3,4-thiadiazol-2-yl]-2-(trideuteriomethoxy)acetamide]: the IC50 in test [3] stood at 166 nM.

Turning to `[2H]C([2H])([2H])O[C@@H](C(=O)Nc1nnc(N[C@@H]2CCN(c3cccnn3)C2)s1)c1ccccc1` [18(b), (2R)-2-phenyl-N-[5-[[(3R)-1-pyridazin-3-ylpyrrolidin-3-yl]amino]-1,3,4-thiadiazol-2-yl]-2-(trideuteriomethoxy)acetamide], the IC50 in test [3] amounted to 73 nM.

`CO[C@@H](C(=O)Nc1nnc(N[C@@H]2CCN(c3nccnn3)C2)s1)c1cccc(OC(F)(F)F)c1` [Example 8(b), (2R)-2-Methoxy-N-[5-[[(3R)-1-(1,2,4-triazin-3-yl)pyrrolidin-3-yl]amino]-1,3,4-thiadiazol-2-yl]-2-[3-(trifluoromethoxy)phenyl]acetamide]: the IC50 in test [3] was determined as 36.8 nM.

With `CO[C@@H](C(=O)Nc1nnc(N[C@@H]2CCN(c3nccnn3)C2)s1)c1ccc(F)cc1` [17(b), (2R)-2-(4-fluorophenyl)-2-methoxy-N-[5-[[(3R)-1-(1,2,4-triazin-3-yl)pyrrolidin-3-yl]amino]-1,3,4-thiadiazol-2-yl]acetamide], in test [3], the IC50 was found to be 120 nM.
